Assay results reported in ChEMBL document CHEMBL4138123, “Design, synthesis and biological evaluation of novel pyrazolochalcones as potential modulators of PI3K/Akt/mTOR pathway and inducers of apoptosis in breast cancer cells” (Eur J Med Chem, 2017).

How the values were obtained:
UACC-257 [1] = test: Cytotoxicity against human UACC257 cells assessed as cell growth at 10 uM after 48 hrs by sulforhodamine B assay relative to control; assay type: functional; details: UACC-257, 48 h, read-out: Activity
ACHN = test: Cytotoxicity against human ACHN cells assessed as cell growth at 0.1 uM after 48 hrs by sulforhodamine B assay relative to control; assay type: functional; details: read-out: Activity
SK-MEL-28 = test: Cytotoxicity against human SK-MEL-28 cells assessed as cell growth at 10 uM after 48 hrs by sulforhodamine B assay relative to control; assay type: functional; details: SK-MEL-28, 48 h, read-out: Activity
MCF7 [2] = test: Cytotoxicity against human MCF7 cells assessed as cell growth at 1 uM after 48 hrs by sulforhodamine B assay relative to control; assay type: functional; details: MCF7, 48 h, read-out: Activity
NCI-H522 = test: Cytotoxicity against human NCI-H522 cells assessed as growth inhibition after 48 hrs by sulforhodamine B assay; assay type: functional; details: NCI-H522, 48 h
SNB-19 = test: Cytotoxicity against human SNB19 cells assessed as cell growth at 0.01 uM after 48 hrs by sulforhodamine B assay relative to control; assay type: functional; details: SNB-19, 48 h, read-out: Activity
TK-10 = test: Cytotoxicity against human TK10 cells assessed as growth inhibition after 48 hrs by sulforhodamine B assay; assay type: functional; details: TK-10, 48 h
A549 = test: Cytotoxicity against human A549/ATCC cells assessed as cell growth at 1 uM after 48 hrs by sulforhodamine B assay relative to control; assay type: functional; details: A549, 48 h, read-out: Activity
A498 [3] = test: Cytotoxicity against human A498 cells assessed as cell growth at 0.01 uM after 48 hrs by sulforhodamine B assay relative to control; assay type: functional; details: A498, 48 h, read-out: Activity
IGROV-1 = test: Cytotoxicity against human IGROV1 cells assessed as cell growth at 10 uM after 48 hrs by sulforhodamine B assay relative to control; assay type: functional; details: IGROV-1, 48 h, read-out: Activity
MDA-MB-468 = test: Cytotoxicity against human MDA-MB-468 cells assessed as cell growth at 0.01 uM after 48 hrs by sulforhodamine B assay relative to control; assay type: functional; details: MDA-MB-468, 48 h, read-out: Activity
SR [4] = test: Cytotoxicity against human SR cells assessed as cell growth at 0.1 uM after 48 hrs by sulforhodamine B assay relative to control; assay type: functional; details: read-out: Activity
MDA-MB-231 = test: Cytotoxicity against human MDA-MB-231 cells assessed as cell growth at 1 uM after 48 hrs by sulforhodamine B assay relative to control; assay type: functional; details: MDA-MB-231, 48 h, read-out: Activity
SK-OV-3 = test: Cytotoxicity against human SKOV3 cells assessed as cell growth at 0.01 uM after 48 hrs by sulforhodamine B assay relative to control; assay type: functional; details: SK-OV-3, 48 h, read-out: Activity
U-251 = test: Cytotoxicity against human U251 cells assessed as cell growth at 100 uM after 48 hrs by sulforhodamine B assay relative to control; assay type: functional; details: U-251, 48 h, read-out: Activity
RPMI-8226 = test: Cytotoxicity against human RPMI8226 cells assessed as growth inhibition after 48 hrs by sulforhodamine B assay; assay type: functional; details: RPMI-8226, 48 h
MCF7 [5] = test: Cytotoxicity against human MCF7 cells assessed as growth inhibition after 48 hrs by MTT assay; assay type: functional, cell-based; details: MCF7, 48 h
BT-549 = test: Cytotoxicity against human BT549 cells assessed as cell growth at 10 uM after 48 hrs by sulforhodamine B assay relative to control; assay type: functional; details: BT-549, 48 h, read-out: Activity
UACC-62 [6] = test: Cytotoxicity against human UACC62 cells assessed as cell growth at 10 uM after 48 hrs by sulforhodamine B assay relative to control; assay type: functional; details: UACC-62, 48 h, read-out: Activity
A498 [7] = test: Cytotoxicity against human A498 cells assessed as cell growth at 100 uM after 48 hrs by sulforhodamine B assay relative to control; assay type: functional; details: A498, 48 h, read-out: Activity
UACC-257 [8] = test: Cytotoxicity against human UACC257 cells assessed as cell growth at 100 uM after 48 hrs by sulforhodamine B assay relative to control; assay type: functional; details: UACC-257, 48 h, read-out: Activity
UO-31 [9] = test: Cytotoxicity against human UO31 cells assessed as growth inhibition after 48 hrs by sulforhodamine B assay; assay type: functional; details: UO-31, 48 h
MOLT-4 = test: Cytotoxicity against human MOLT4 cells assessed as cell growth at 0.01 uM after 48 hrs by sulforhodamine B assay relative to control; assay type: functional; details: MOLT-4, 48 h, read-out: Activity
SR [10] = test: Cytotoxicity against human SR cells assessed as growth inhibition after 48 hrs by sulforhodamine B assay; assay type: functional; details: for CC50: read-out: LC50 (the source's name)
786-0 [11] = test: Cytotoxicity against human 786-0 cells assessed as cell growth at 0.01 uM after 48 hrs by sulforhodamine B assay relative to control; assay type: functional; details: 786-0, 48 h, read-out: Activity
SW-620 = test: Cytotoxicity against human SW620 cells assessed as cell growth at 0.01 uM after 48 hrs by sulforhodamine B assay relative to control; assay type: functional; details: SW-620, 48 h, read-out: Activity
DU-145 = test: Cytotoxicity against human DU145 cells assessed as cell growth at 0.01 uM after 48 hrs by sulforhodamine B assay relative to control; assay type: functional; details: DU-145, 48 h, read-out: Activity
UACC-62 [12] = test: Cytotoxicity against human UACC62 cells assessed as growth inhibition after 48 hrs by sulforhodamine B assay; assay type: functional; details: UACC-62, 48 h
OVCAR-3 = test: Cytotoxicity against human OVCAR3 cells assessed as cell growth at 0.1 uM after 48 hrs by sulforhodamine B assay relative to control; assay type: functional; details: OVCAR-3, 48 h, read-out: Activity
RXF 393 = test: Cytotoxicity against human RXF393 cells assessed as cell growth at 0.1 uM after 48 hrs by sulforhodamine B assay relative to control; assay type: functional; details: RXF 393, 48 h, read-out: Activity
SK-MEL-5 = test: Cytotoxicity against human SK-MEL-5 cells assessed as cell growth at 0.1 uM after 48 hrs by sulforhodamine B assay relative to control; assay type: functional; details: SK-MEL-5, 48 h, read-out: Activity
NCI-H226 = test: Cytotoxicity against human NCI-H226 cells assessed as cell growth at 0.01 uM after 48 hrs by sulforhodamine B assay relative to control; assay type: functional; details: NCI-H226, 48 h, read-out: Activity
UO-31 [13] = test: Cytotoxicity against human UO31 cells assessed as cell growth at 10 uM after 48 hrs by sulforhodamine B assay relative to control; assay type: functional; details: UO-31, 48 h, read-out: Activity
786-0 [14] = test: Cytotoxicity against human 786-0 cells assessed as growth inhibition after 48 hrs by sulforhodamine B assay; assay type: functional; details: 786-0, 48 h
A498 [15] = test: Cytotoxicity against human A498 cells assessed as cell growth at 1 uM after 48 hrs by sulforhodamine B assay relative to control; assay type: functional; details: A498, 48 h, read-out: Activity

Work on `COc1cc2c(cc1OC)C(=O)/C(=C/c1cc(-c3ccc4c(c3)OCO4)n[nH]1)C2` yielded a growth at 10 µM (UACC-257 [1]) of -96%, a growth at 0.1 µM (ACHN) of 100% and a growth at 10 µM (SK-MEL-28) of -92%. It also gave a growth at 1 µM (MCF7 [2]) of 15%, a GI50 (NCI-H522) of 0.25 µM and an LC50 (NCI-H522) of 3.92 µM. It also gave a TGI (NCI-H522) of 0.871 µM, a growth at 0.01 µM (SNB-19) of 97% and a GI50 (TK-10) of 1.89 µM. It also gave an LC50 (TK-10) of 5.96 µM, a TGI (TK-10) of 3.36 µM and a growth at 1 µM (A549) of 83%. For the same compound, the growth at 0.01 µM (A498 [3]) was 80%, the growth at 10 µM (IGROV-1) was -44% and the growth at 0.01 µM (MDA-MB-468) was 93%. The growth at 0.1 µM (SR [4]) was 98%, the growth at 1 µM (MDA-MB-231) was 88% and the growth at 0.01 µM (SK-OV-3) was 102%. For the same compound, the growth at 100 µM (U-251) was -94%, the GI50 (RPMI-8226) was 0.23 µM and the LC50 (RPMI-8226) was 5.52 µM. For the same compound, the TGI (RPMI-8226) was 0.623 µM, the IC50 (MCF7 [5]) was 1.02 µM and the growth at 10 µM (BT-549) was -94%. It also gave a growth at 10 µM (UACC-62 [6]) of -96%, a growth at 100 µM (A498 [7]) of -97% and a growth at 100 µM (UACC-257 [8]) of -95%. It also gave a GI50 (UO-31 [9]) of 1.29 µM, an LC50 (UO-31 [9]) of 5.51 µM and a TGI (UO-31 [9]) of 2.67 µM. For the same compound, the growth at 0.01 µM (MOLT-4) was 100%, the GI50 (SR [10]) was 0.62 µM and the TGI (SR [10]) was 4.11 µM. For the same compound, the CC50 (SR [10]) was greater than 100 µM, the growth at 0.01 µM (786-0 [11]) was 96% and the growth at 0.01 µM (SW-620) was 98%. It also gave a growth at 0.01 µM (DU-145) of 102%, a GI50 (UACC-62 [12]) of 1.63 µM and an LC50 (UACC-62 [12]) of 5.66 µM. For the same compound, the TGI (UACC-62 [12]) was 3.04 µM, the growth at 0.1 µM (OVCAR-3) was 101% and the growth at 0.1 µM (RXF 393) was 82%. It also gave a growth at 0.1 µM (SK-MEL-5) of 93%, a growth at 0.01 µM (NCI-H226) of 97% and a growth at 10 µM (UO-31 [13]) of -91%. For the same compound, the GI50 (786-0 [14]) was 1.61 µM, the LC50 (786-0 [14]) was 5.54 µM and the TGI (786-0 [14]) was 2.99 µM. The growth at 1 µM (A498 [15]) was 69%.

In the case of `COc1cc(-c2cc(/C=C/C(=O)c3ccc(N)cc3)[nH]n2)cc(OC)c1OC`, the growth at 10 µM (UACC-257 [1]) is reported as -59%, the growth at 0.1 µM (ACHN) is reported as 97% and the growth at 10 µM (SK-MEL-28) is reported as -57%. It also gave a growth at 1 µM (MCF7 [2]) of 66%, a GI50 (NCI-H522) of 1.62 µM and an LC50 (NCI-H522) of 9.81 µM. The TGI (NCI-H522) was 3.99 µM, the growth at 0.01 µM (SNB-19) was 96% and the GI50 (TK-10) was 4.84 µM. The LC50 (TK-10) was 51.6 µM, the TGI (TK-10) was 17.5 µM and the growth at 1 µM (A549) was 80%. For the same compound, the growth at 0.01 µM (A498 [3]) was 91%, the growth at 10 µM (IGROV-1) was 1% and the growth at 0.01 µM (MDA-MB-468) was 90%. For the same compound, the growth at 0.1 µM (SR [4]) was 87%, the growth at 1 µM (MDA-MB-231) was 70% and the growth at 0.01 µM (SK-OV-3) was 82%. It also gave a growth at 100 µM (U-251) of -98%, a GI50 (RPMI-8226) of 0.47 µM and an LC50 (RPMI-8226) greater than 100 µM. For the same compound, the TGI (RPMI-8226) was 2.77 µM, the IC50 (MCF7 [5]) was 1.6 µM and the growth at 10 µM (BT-549) was -89%. The growth at 10 µM (UACC-62 [6]) was -69%, the growth at 100 µM (A498 [7]) was -96% and the growth at 100 µM (UACC-257 [8]) was -93%. The GI50 (UO-31 [9]) was 1.36 µM, the LC50 (UO-31 [9]) was 6 µM and the TGI (UO-31 [9]) was 2.86 µM. For the same compound, the growth at 0.01 µM (MOLT-4) was 101%, the GI50 (SR [10]) was 0.32 µM and the TGI (SR [10]) was 2.75 µM. For the same compound, the CC50 (SR [10]) was greater than 100 µM, the growth at 0.01 µM (786-0 [11]) was 92% and the growth at 0.01 µM (SW-620) was 95%. For the same compound, the growth at 0.01 µM (DU-145) was 107%, the GI50 (UACC-62 [12]) was 1.7 µM and the LC50 (UACC-62 [12]) was 7.51 µM. For the same compound, the TGI (UACC-62 [12]) was 3.58 µM, the growth at 0.1 µM (OVCAR-3) was 110% and the growth at 0.1 µM (RXF 393) was 91%. The growth at 0.1 µM (SK-MEL-5) was 95%, the growth at 0.01 µM (NCI-H226) was 92% and the growth at 10 µM (UO-31 [13]) was -84%. The GI50 (786-0 [14]) was 2.04 µM, the LC50 (786-0 [14]) was 27.6 µM and the TGI (786-0 [14]) was 6.49 µM. The growth at 1 µM (A498 [15]) was 76%.
